Laboratory results published in patent US11478466B2, “Small molecule promoting osteoblast differentiation” (Cornell University, priority 2019, dated 2022).
Read-outs that look alike come from different tables or passages of the source.

Columns and labels:
[1] = test system: alkaline phosphatase (ALP); test: cells; settings: Mus musculus; for EC50: C2C12; for activation at 10 µM: C2C12, 96 h
[2] = test system: alkaline phosphatase (ALP); settings: for Fluo. Z Score: SAR of library and proprietary analogs, AttoPhos assay; for RFU Score Threshold ≥ 800 / Fluorescence Z Score Threshold ≥ 10 / NPA Score Threshold ≥ 5.0 (normalized percent activation): primary screen, C2C12, 4 days; for RFU Score Threshold ≥ 800: Ex 450/Em 580 nm, rank in brackets not taken; for Fluorescence Z Score Threshold ≥ 10: Z score on DMSO control wells; for NPA Score Threshold ≥ 5.0 (normalized percent activation): normalized against rhBMP4 positive and DMSO negative controls
[3] = read-out: NPA Score Threshold ≥ 5.0 (normalized percent activation)

Row | Molecule | RFU Score Threshold ≥ 800 ([2]; 10 μM) | Fluorescence Z Score Threshold ≥ 10 ([2]; 10 μM) | NPA Score Threshold ≥ 5.0 (normalized percent activation) ([2]; 10 μM) | also measured
1 | O=C(Nc1ccc(O)cc1)c1cc2cc(Cl)ccc2[nH]c1=O [BT351] |  |  |  | EC50 [1]: 20.9 µM; Fluo. Z Score ([2]; C2C12): 1.48 ± 1.26
2 | CC1(C)OB(c2c(C(=O)O)c(=O)[nH]c3ccc(Cl)cc23)OC1(C)C [BT353] |  |  |  | EC50 [1]: 5.31 µM; Fluo. Z Score ([2]; C2C12): 3.15 ± 0.34
3 | c1ccc2c(c1)nc(NC1CCCC1)c1nncn12 [RU-0007138] | Below Threshold | 17.92 (10) | Below Threshold | 
4 | COC(=O)c1ccc(NC(=O)c2c3c(nn2C2CCS(=O)(=O)C2)CCC3)cc1 (stereo not drawn) [RU-0159762] | 855 (22) | 21.33 (6) | Below Threshold | 
5 | CC(C)N1CCC(SCc2ccc(F)cc2C#N)C1=O (stereo not drawn) [RU-0201425] | Below Threshold | Below Threshold |  | activation at 10 µM [1, 3]: 5.69%
6 | CC1(C)C(=O)NCCN1C(=O)/C=C(/c1ccc(Cl)cc1)C(F)(F)F [RU-0213635] | 1170 (5) | 15.00 (14) | Below Threshold | 
7 | Cc1cc(C(=O)NC2(C#N)CC2)ccc1NC(=O)CC(C)C [RU-0213672] | 1040 (9) | 12.15 (20) | Below Threshold | 
8 | O=C(NC1CCN(c2ccc(F)cc2)CC1)N(CC1CCOC1)C1CC1 (stereo not drawn) [RU-0219256] | Below Threshold | Below Threshold |  | activation at 10 µM [1, 3]: 5.69%
9 | CCCN(C)CC1CCN(C(C)C(=O)Nc2ccc(C(F)(F)F)cc2)C1 (stereo not drawn) [RU-0219355] | 819 (28) | Below Threshold |  | activation at 10 µM [1, 3]: 6.14%
10 | Cc1cc(C)c2[nH]c(=O)c(-c3c(-c4ccccc4)ncn3CCCO)cc2c1 [RU-0220396] |  |  |  | EC50 [1]: 2.63 µM; Fluo. Z Score ([2]; C2C12): −0.3 ± 0.20
11 | CCC(C)(C)C(=O)N1CCC(CO)(CCOc2ccccc2)CC1 [RU-0220454] | 811 (31) | Below Threshold | Below Threshold | 
12 | CO[C@H]1CN(Cc2cccc(Cl)c2Cl)CC[C@H]1N [RU-0221236] | Below Threshold | Below Threshold |  | activation at 10 µM [1, 3]: 5.13%
13 | Cc1ccc(CN2CCN(Cc3ccccc3CO)CC2)n1-c1cccnc1 [RU-0221380] | 922 (13) | 16.89 (11) | Below Threshold | 
14 | O=C(NC1CC1)C1CCCN(C2CCN(c3ccc(C(F)(F)F)cn3)CC2)C1 (stereo not drawn) [RU-0221613] | Below Threshold | Below Threshold |  | activation at 10 µM [1, 3]: 5%
15 | c1ccc(-c2nc[nH]c2-c2ccccc2Cn2cccn2)cc1 [RU-0222072] |  |  |  | activation at 10 µM [1]: 5.05%; RFU Score (10 μM) ([2]; 154-analog library, 10 μM, C2C12, duplicate): 425
16 | CC(C)c1nnc(CN2C[C@H]3CC=CC[C@H]3C2)o1 [RU-0223925] | 1120 (6) | 18.94 (8) |  | activation at 10 µM [1, 3]: 11.2%
17 | CN1CCC2(CC1)CN(C(=O)COCC1CCCO1)CCCN2C (stereo not drawn) [RU-0224115] | 900 (17) | Below Threshold | Below Threshold | 
18 | Cc1c(-c2ccccc2F)[nH]c2ccc(CNS(=O)(=O)N3CCCC3)cc12 [RU-0225107] | 805 (34) | Below Threshold |  | activation at 10 µM [1, 3]: 5.07%
19 | O=C(c1ccc2c(c1)OCO2)C1CCCN(C(=O)c2cnn(Cc3ccccc3)c2)C1 (stereo not drawn) [RU-0227215] | 1310 (4) | 27.39 (4) | Below Threshold | 

Row | Molecule | RFU Score Threshold ≥ 800 ([2]; 10 μM) | Fluorescence Z Score Threshold ≥ 10 ([2]; 10 μM) | NPA Score Threshold ≥ 5.0 (normalized percent activation) ([2]; 10 μM) | also measured
20 | OCc1ccccc1-c1ccc(NC2CCCC2)nn1 [RU-0227303] | Below Threshold | 13.68 (18) | Below Threshold | 
21 | COc1cccc(C2CCN(c3ncnc4c3CCNC4)C2)c1OC (stereo not drawn) [RU-0227959] | 815 (30) | Below Threshold | Below Threshold | 
22 | Cc1ccccc1N1CCN(C(=O)c2ccc(C#CC(C)(C)O)o2)C(C)C1 (stereo not drawn) [RU-0228950] | 921 (14) | 15.58 (13) | Below Threshold | 
23 | COc1ccc(-n2c(Cc3cccnc3)n[nH]c2=O)c(C)c1 [RU-0230205] | 1060 (8) | 19.99 (7) | Below Threshold | 
24 | CCCc1ccc(-c2ccc(C(=O)N3C[C@@H](N)C[C@H]3C(=O)NC)cc2)cc1 [RU-0232318] | 804 (35) | Below Threshold | Below Threshold | 
25 | Cc1nc[nH]c1CN1CCOc2c(O)cc(-c3cccc(Cl)c3)cc2C1 [RU-0236543] | 821 (27) | Below Threshold | Below Threshold | 
26 | O[C@@H]1CNCC[C@H]1CNCc1ccccc1-c1ccccc1 [RU-0236855] | 810 (32) | Below Threshold | Below Threshold | 
27 | CSc1ncc(C(=O)NCc2cc(C)cc3c(C)c(C)[nH]c23)cn1 [RU-0239453] | 809 (33) | Below Threshold | Below Threshold | 
28 | CCC(OC)C(=O)NCc1ccc2[nH]c(-c3ccccc3F)c(C)c2c1 (stereo not drawn) [RU-0244068] | 836 (26) | Below Threshold | Below Threshold | 
29 | Cc1ccc(OCCN(C)Cc2ccncc2)c(C)c1 [RU-0244443] | 818 (29) | Below Threshold | Below Threshold | 
30 | O=C(N[C@H]1CN[C@H](C(=O)NCCCn2ccnc2)C1)c1cccc(Cl)c1 [RU-0245007] | 993 (12) | 14.31 (17) | Below Threshold | 
31 | c1ccc(CC2CCN(Cc3cc4n(n3)CCCNC4)C2)cc1 (stereo not drawn) [RU-0246723] | 873 (20) | 10.91 (23) | Below Threshold | 
32 | Cc1nc(CCN)cc(N2CCCC2c2nonc2C)n1 (stereo not drawn) [RU-0250475] | 879 (19) | Below Threshold | Below Threshold | 
33 | CN(Cc1cccc2ncccc12)CC1CCOC1 (stereo not drawn) [RU-0252111] | 1010 (10) | 16.48 (12) | Below Threshold | 
34 | CCCc1nc(C)c(CNC(=O)C2CCOC2)s1 (stereo not drawn) [RU-0254439] | Below Threshold | 14.37 (16) | Below Threshold | 
35 | CCOC(=O)c1n[nH]cc1[C@@H]1C[C@H](NC(C)=O)C[C@H](CC(C)C)O1 [RU-0257787] | Below Threshold | 12.09 (21) | Below Threshold | 
36 | Cc1cccc(-c2ncc(CN3CCCC(Cn4ccnc4C)C3)cn2)c1 (stereo not drawn) [RU-0261573] | 857 (21) | 10.31 (24) | Below Threshold | 
37 | CCNC(=O)N1CCc2c(cnc(C)c2-c2noc(-c3ccc(C)cc3)n2)C1 [RU-0265172] | 840 (25) | 18.70 (9) | Below Threshold | 
38 | N-(3-isoquinolin-5-ylbenzyl)propanamide [RU-0248250] | 1000 (11) | 24.29 (5) | Below Threshold | EC50 ([2]; read-out: Measured EC50, compounds validated in secondary screen, C2C12): > 40 µM
